Experimental data as given in US20230167088A1, “1-PYRAZINYLPYRAZOLYL-3-OXYALKYL ACIDS AND THEIR DERIVATIVES, AND THEIR USE FOR CONTROL OF UNDESIRED PLANT GROWTH” (BAYER AKTIENGESELLSCHAFT, priority 2020, published 2023).

How the values were obtained:
ALOMY [1] = assay: Herbicidal post-emergence action 1a (greenhouse pots, visual rating); format: in vivo, Alopecurus myosuroides; conditions: rated visually about 3 weeks after treatment, 100% = plants have died, 0% = like control plants
Outline: (§1)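 Weeds and crops sown in sandy loam in greenhouse pots were sprayed post-emergence at the one-leaf stage (2–3 weeks after sowing) with WP or EC formulations plus 0.5% additive at 600 l/ha water, 320 and/or 80 g/ha. About 3 weeks later damage was rated visually against untreated controls (0% = no effect, 100% = dead).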

ECHCG [2] = assay: as above; format: in vivo, Echinochloa crus-galli; conditions: Dosage 320 g/ha; rated visually about 3 weeks after treatment; 100% = plants have died, 0% = like control plants
Outline: as §1

AMARE [3] = assay: as above; format: in vivo, Amaranthus retroflexus; conditions: dosage 320 g/ha, visual rating about 3 weeks after treatment
Outline: as §1

MATIN [4] = assay: as above; format: in vivo, Matricaria inodora; conditions: dosage 320 g/ha, visual rating about 3 weeks after treatment
Experimental: (§2) [table] a) Seeds of monocotyledonous and dicotyledonous weeds and crop plants are placed in sandy loam in plastic or organic plant pots, covered with soil and cultivated in a greenhouse under controlled growth conditions. 2 to 3 weeks after sowing, the test plants are treated at the one-leaf stage. The compounds of the invention, formulated in the form of wettable powders (WP) or as emulsion concentrates (EC), are then sprayed onto the green parts of the plants as aqueous suspension or emulsion with addition of 0.5% additive at a water application rate of 600 1/ha (converted). After the test plants have been kept in the greenhouse under optimum growth conditions for about 3 weeks, the activity of the preparations is rated visually in comparison to untreated controls. For example, 100% activity=the plants have died, 0% activity=like control plants. Tables A1 to A15 below show the effects of selected compounds of the general formula (I) according to Tables 1 and 2 on various harmful plants and an application rate corresponding to 320 g/ha and/or 80 g/ha, which were obtained by the experimental procedure mentioned above.

PHBPU [5] = assay: as above; format: in vivo, Pharbitis purpurea; conditions: dosage 320 g/ha, visual rating about 3 weeks after treatment
Outline: as §1

STEME [6] = assay: as above; format: in vivo, Stellaria media; conditions: Dosage 320 g/ha; rated visually about 3 weeks after treatment; 100% = plants have died, 0% = like control plants
Experimental: as §2

VIOTR [7] = assay: as above; format: in vivo, Viola tricolor; conditions: dosage 320 g/ha, visual rating about 3 weeks after treatment
Outline: as §1

VERPE [8] = assay: as above; format: in vivo, Veronica persica; conditions: dosage 320 g/ha, visual rating about 3 weeks after treatment
Outline: as §1

POAAN [9] = assay: Herbicidal post-emergence action 1b (twin sowing, 1280 g/ha); format: in vivo, Poa annua; conditions: dosage 1280 g/ha, visual rating about 3 weeks after treatment
Outline: (§3)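 Twin-sown mono- and dicot weeds in sandy loam were sprayed post-emergence at the one-leaf stage, 2–3 weeks after sowing, with WP or EC formulations in water plus 0.5% additive at 600 L/ha. After about 3 weeks in the greenhouse, activity was rated visually against untreated controls (0% = like control, 100% = plants dead).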

ECHCG [10] = assay: as above; format: in vivo, Echinochloa crus-galli; conditions: dosage 1280 g/ha, visual rating about 3 weeks after treatment
Outline: as §3

MATIN [11] = assay: as above; format: in vivo, Matricaria inodora; conditions: dosage 1280 g/ha, visual rating about 3 weeks after treatment
Outline: as §3

STEME [12] = assay: as above; format: in vivo, Stellaria media; conditions: dosage 1280 g/ha, visual rating about 3 weeks after treatment
Outline: as §3

DIGSA [13] = assay: Herbicidal pre-emergence action 2a (greenhouse pots, visual scoring); format: in vivo, Digitaria sanguinalis; conditions: dosage 320 g/ha, visual scoring after about 3 weeks
Outline: (§4)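 Weed and crop seeds placed in pots and covered with soil; aqueous suspension or emulsion of WP/EC formulation applied to the soil surface before emergence (600 l/ha, 0.5% additive, 320 and/or 80 g/ha). Pots kept in the greenhouse about 3 weeks; visual percentage scoring.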

AMARE [14] = assay: as above; format: in vivo, Amaranthus retroflexus; conditions: dosage 320 g/ha, visual scoring after about 3 weeks vs untreated controls
Outline: as §4

MATIN [15] = assay: as above; format: in vivo, Matricaria inodora; conditions: dosage 320 g/ha, visual scoring after about 3 weeks vs untreated controls
Outline: as §4

VERPE [16] = assay: as above; format: in vivo, Veronica persica; conditions: dosage 320 g/ha, visual scoring after about 3 weeks vs untreated controls
Outline: as §4

POAAN [17] = assay: Herbicidal pre-emergence action 2b (doubly sown, 1280 g/ha); format: in vivo, Poa annua; conditions: doubly sown pots, dosage 1280 g/ha, visual scoring after about 3 weeks
Outline: (§5)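 Weed seeds sown in sandy loam, two species per pot, covered with soil; compounds as WP or EC applied to soil surface as aqueous suspension/emulsion with 0.5% additive at 600 L/ha water. Greenhouse growth; visual % activity vs untreated controls after about 3 weeks (100% = dead, 0% = like control).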

ECHCG [18] = assay: as above; format: in vivo, Echinochloa crus-galli; conditions: doubly sown pots, dosage 1280 g/ha, visual scoring after about 3 weeks
Outline: as §5

AMARE [19] = assay: as above; format: in vivo, Amaranthus retroflexus; conditions: doubly sown pots, dosage 1280 g/ha, visual scoring after about 3 weeks
Outline: as §5

MATIN [20] = assay: as above; format: in vivo, Matricaria inodora; conditions: doubly sown pots, dosage 1280 g/ha, visual scoring after about 3 weeks
Outline: as §5

STEME [21] = assay: as above; format: in vivo, Stellaria media; conditions: doubly sown pots, dosage 1280 g/ha, visual scoring after about 3 weeks
Outline: as §5

DIGSA [22] = assay: Herbicidal post-emergence action 1b (twin sowing, 1280 g/ha); format: in vivo, Digitaria sanguinalis; conditions: dosage 1280 g/ha, visual rating about 3 weeks after treatment
Experimental: (§6) [table] b) Seeds of mono- and dicotyledonous weed plants are placed in plastic pots in sandy loam soil (twin sowing with one species each of mono- or dicotyledonous weed plants per pot), covered with soil and cultivated in a greenhouse under controlled growth conditions. 2 to 3 weeks after sowing, the test plants are treated at the one-leaf stage. The compounds of the invention, formulated in the form of wettable powders (WP) or as emulsion concentrates (EC), are applied to the green parts of the plants as aqueous suspension or emulsion with addition of 0.5% additive at a water application rate equivalent to 600 litres per hectare. After the test plants have been kept in the greenhouse under optimum growth conditions for about 3 weeks, the activity of the preparations is rated visually in comparison to untreated controls. For example, 100% activity=the plants have died, 0% activity=like control plants. Tables A16 to A21 below show the effects of selected compounds of the general formula (I) according to Tables 1 and 2 on various harmful plants and at an application rate corresponding to 1280 g/ha, which were obtained by the experimental procedure mentioned above.

ABUTH = assay: as above; format: in vivo, Abutilon theophrasti; conditions: dosage 1280 g/ha, visual rating about 3 weeks after treatment
Experimental: as §6

ALOMY [23] = assay: Herbicidal pre-emergence action 2a (greenhouse pots, visual scoring); format: in vivo, Alopecurus myosuroides; conditions: dosage 320 g/ha, visual scoring after about 3 weeks
Outline: as §4

AVEFA = assay: as above; format: in vivo, Avena fatua; conditions: dosage 320 g/ha, visual scoring after about 3 weeks
Outline: as §4

ECHCG [24] = assay: as above; format: in vivo, Echinochloa crus-galli; conditions: dosage 320 g/ha, visual scoring after about 3 weeks
Text: (§7) [table] a) Seeds of monocotyledonous and dicotyledonous weed plants and crop plants are placed in plastic or organic plant pots and covered with soil. The compounds of the invention, formulated in the form of wettable powders (WP) or as emulsion concentrates (EC), are then applied onto the surface of the covering soil as aqueous suspension or emulsion with addition of 0.5% additive at a water application rate of 600 1/ha (converted). After the treatment, the pots are placed in a greenhouse and kept under good growth conditions for the trial plants. After about 3 weeks, the effect of the preparations is scored visually in comparison with untreated controls as percentages. For example, 100% activity=the plants have died, 0% activity=like control plants. Tables B1 to B15 below show the effects of selected compounds of the general formula (I) according to Tables 1 and 2 on various harmful plants and an application rate corresponding to 320 g/ha and/or 80 g/ha, which were obtained by the experimental procedure mentioned above.

SETVI = assay: as above; format: in vivo, Setaria viridis; conditions: dosage 320 g/ha, visual scoring after about 3 weeks vs untreated controls
Outline: as §4

PHBPU [25] = assay: as above; format: in vivo, Pharbitis purpurea; conditions: dosage 320 g/ha, visual scoring after about 3 weeks vs untreated controls
Text: as §7

POLCO = assay: as above; format: in vivo, Polygonum convolvulus; conditions: dosage 320 g/ha, visual scoring after about 3 weeks vs untreated controls
Outline: as §4

VIOTR [26] = assay: as above; format: in vivo, Viola tricolor; conditions: dosage 320 g/ha, visual scoring after about 3 weeks vs untreated controls
Outline: as §4

DIGSA [27] = assay: Herbicidal pre-emergence action 2b (doubly sown, 1280 g/ha); format: in vivo, Digitaria sanguinalis; conditions: doubly sown pots, dosage 1280 g/ha, visual scoring after about 3 weeks
Outline: as §5

| SMILES | Post-emergence action at 1280 g/ha against POAAN in % (POAAN [9]) | Post-emergence action at 1280 g/ha against ECHCG in % (ECHCG [10]) | Post-emergence action at 1280 g/ha against MATIN in % (MATIN [11]) | Post-emergence action at 1280 g/ha against STEME in % (STEME [12]) | Pre-emergence action against AMARE in % (AMARE [14]) | Pre-emergence action against MATIN in % (MATIN [15]) | Pre-emergence action against VERPE in % (VERPE [16]) | Pre-emergence action at 1280 g/ha against POAAN in % (POAAN [17]) | Pre-emergence action at 1280 g/ha against ECHCG in % (ECHCG [18]) | Pre-emergence action at 1280 g/ha against AMARE in % (AMARE [19]) | Pre-emergence action at 1280 g/ha against MATIN in % (MATIN [20]) | Pre-emergence action at 1280 g/ha against STEME in % (STEME [21]) | further results |
| --- | --- | --- | --- | --- | --- | --- | --- | --- | --- | --- | --- | --- | --- |
| CCOC(=O)COc1nn(-c2cnccn2)c(-c2cccc(F)c2)c1Br [Example I-02] | 90% | 90% | 90% | 90% | 100% | 90% | 100% | 100% | 100% | 100% | 100% | 100% | Post-emergence action against ALOMY in % (ALOMY [1]; Dosage 320 g/ha): 80%; Post-emergence action against ECHCG in % (ECHCG [2]): 80%; Post-emergence action against AMARE in % (AMARE [3]): 80%; Post-emergence action against MATIN in % (MATIN [4]): 80%; Post-emergence action against PHBPU in % (PHBPU [5]): 90%; Post-emergence action against STEME in % (STEME [6]): 80%; Post-emergence action against VIOTR in % (VIOTR [7]): 80%; Post-emergence action against VERPE in % (VERPE [8]): 80%; Pre-emergence action against DIGSA in % (DIGSA [13]): 90% |
| COCCOCCOC(=O)COc1nn(-c2cnccn2)c(-c2ccc(F)nc2)c1Br [Example I-67] | 100% | 90% | 100% | 90% | 100% | 80% | 90% | 100% | 100% | 100% | 100% | 100% | Post-emergence action against ALOMY in % (ALOMY [1]; Dosage 80 g/ha): 90%; Post-emergence action at 1280 g/ha against DIGSA in % (DIGSA [22]): 100%; Post-emergence action at 1280 g/ha against ABUTH in % (ABUTH): 90%; Pre-emergence action against ALOMY in % (ALOMY [23]): 100%; Pre-emergence action against AVEFA in % (AVEFA): 80%; Pre-emergence action against ECHCG in % (ECHCG [24]): 90%; Pre-emergence action against SETVI in % (SETVI): 90%; Pre-emergence action against PHBPU in % (PHBPU [25]): 80%; Pre-emergence action against POLCO in % (POLCO): 90%; Pre-emergence action against VIOTR in % (VIOTR [26]): 90%; Pre-emergence action at 1280 g/ha against DIGSA in % (DIGSA [27]): 100% |
